Assay results published in ChEMBL document CHEMBL1201862, “PubChem BioAssay data set” (2004).
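Method: 48-hour compound exposure of cells in 96-well plates, five concentrations, linear interpolation of endpoints. The concentration for 50% growth inhibition is given as GI50.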 Calls of active or inactive are those of the source. No stated cut-off is given here; in the data, active = GI50 up to about 1.1 µM and inactive = higher.

Assays:
Test in all cases: inhibition of tumour cell growth, NCI panel, 48 h
MDA-N = test system: MDA-N
NCI-H460 = test system: NCI-H460
SR = test system: SR
OVCAR-8 = test system: OVCAR-8
SNB-19 = test system: SNB-19
MDA-MB-231 = test system: MDA-MB-231
Hs-578T = test system: Hs-578T
HOP-92 = test system: HOP-92
LOX IMVI = test system: LOX IMVI
BT-549 = test system: BT-549
HCT-15 = test system: HCT-15
CAKI-1 = test system: CAKI-1
NCI/ADR-RES = test system: NCI/ADR-RES
HCT-116 = test system: HCT-116
KM12 = test system: KM12
UACC-257 = test system: UACC-257
K562 = test system: K562
ACHN = test system: ACHN
UACC-62 = test system: UACC-62
SW-620 = test system: SW-620
NCI-H226 = test system: NCI-H226
DU-145 = test system: DU-145
CCRF-CEM = test system: CCRF-CEM
M14 = test system: M14
TK-10 = test system: TK-10
T47D = test system: T47D
SF-295 = test system: SF-295
OVCAR-3 = test system: OVCAR-3
SNB-75 = test system: SNB-75
SK-MEL-2 = test system: SK-MEL-2
MCF7 = test system: MCF7
786-0 = test system: 786-0
SF-539 = test system: SF-539
COLO 205 = test system: COLO 205
NCI-H522 = test system: NCI-H522
HOP-62 = test system: HOP-62
OVCAR-4 = test system: OVCAR-4
SN12C = test system: SN12C
SF-268 = test system: SF-268
SK-MEL-5 = test system: SK-MEL-5
IGROV-1 = test system: IGROV-1
SK-OV-3 = test system: SK-OV-3
MOLT-4 = test system: MOLT-4
SK-MEL-28 = test system: SK-MEL-28
A498 = test system: A498
A549 = test system: A549
HL-60 = test system: HL-60
RPMI-8226 = test system: RPMI-8226
HCC 2998 = test system: HCC 2998
U-251 = test system: U-251
EKVX = test system: EKVX
NCI-H23 = test system: NCI-H23
PC-3 = test system: PC-3
MDA-MB-435 = test system: MDA-MB-435
RXF 393 = test system: RXF 393
Malme-3M = test system: Malme-3M
OVCAR-5 = test system: OVCAR-5
HT-29 = test system: HT-29
UO-31 = test system: UO-31

## O=C1CCCCC1C(O)(C(F)(F)F)C(F)(F)Cl (centres undefined)
MDA-N
  GI50: > 10 µM (inactive)
NCI-H460
  GI50: > 10 µM (inactive)
SR
  GI50: > 10 µM (inactive)
OVCAR-8
  GI50: > 10 µM (inactive)
SNB-19
  GI50: > 10 µM (inactive)
MDA-MB-231
  GI50: > 10 µM (inactive)
Hs-578T
  GI50: > 10 µM (inactive)
HOP-92
  GI50: > 10 µM (inactive)
LOX IMVI
  GI50: > 10 µM (inactive)
BT-549
  GI50: > 10 µM (inactive)
HCT-15
  GI50: > 10 µM
CAKI-1
  GI50: > 10 µM (inactive)
NCI/ADR-RES
  GI50: > 10 µM (inactive)
HCT-116
  GI50: > 10 µM (inactive)
KM12
  GI50: > 10 µM (inactive)
UACC-257
  GI50: > 10 µM (inactive)
K562
  GI50: > 10 µM (inactive)
ACHN
  GI50: > 10 µM (inactive)
UACC-62
  GI50: > 10 µM (inactive)
SW-620
  GI50: > 10 µM (inactive)
NCI-H226
  GI50: > 10 µM (inactive)
DU-145
  GI50: > 10 µM (inactive)
CCRF-CEM
  GI50: > 10 µM (inactive)
M14
  GI50: > 10 µM (inactive)
TK-10
  GI50: > 10 µM (inactive)
T47D
  GI50: > 10 µM (inactive)
SF-295
  GI50: > 10 µM (inactive)
OVCAR-3
  GI50: > 10 µM (inactive)
SNB-75
  GI50: > 10 µM (inactive)
SK-MEL-2
  GI50: > 10 µM (inactive)
MCF7
  GI50: > 10 µM (inactive)
786-0
  GI50: > 10 µM (inactive)
SF-539
  GI50: > 10 µM (inactive)
COLO 205
  GI50: > 10 µM (inactive)
NCI-H522
  GI50: > 10 µM (inactive)
HOP-62
  GI50: > 10 µM (inactive)
OVCAR-4
  GI50: > 10 µM (inactive)
SN12C
  GI50: > 10 µM (inactive)
SF-268
  GI50: > 10 µM (inactive)
SK-MEL-5
  GI50: > 10 µM (inactive)
IGROV-1
  GI50: > 10 µM (inactive)
SK-OV-3
  GI50: > 10 µM (inactive)
MOLT-4
  GI50: > 10 µM (inactive)
SK-MEL-28
  GI50: > 10 µM (inactive)
A498
  GI50: > 10 µM (inactive)
A549
  GI50: > 10 µM (inactive)
HL-60
  GI50: > 10 µM (inactive)
RPMI-8226
  GI50: > 10 µM (inactive)
HCC 2998
  GI50: > 10 µM (inactive)
U-251
  GI50: > 10 µM (inactive)
EKVX
  GI50: > 10 µM (inactive)
NCI-H23
  GI50: > 10 µM (inactive)
PC-3
  GI50: > 10 µM (inactive)
MDA-MB-435
  GI50: > 10 µM (inactive)
RXF 393
  GI50: > 10 µM (inactive)
Malme-3M
  GI50: > 10 µM (inactive)
OVCAR-5
  GI50: > 10 µM (inactive)
HT-29
  GI50: > 10 µM (inactive)

## CC(=O)OC1CCn2c1nc1cc([N+](=O)[O-])c(C)cc12 (centres undefined)
MDA-N
  GI50: > 100 µM (inactive)
NCI-H460
  GI50: > 100 µM (inactive)
SR
  GI50: > 100 µM (inactive)
OVCAR-8
  GI50: > 100 µM (inactive)
SNB-19
  GI50: > 100 µM (inactive)
MDA-MB-231
  GI50: > 100 µM (inactive)
Hs-578T
  GI50: > 100 µM (inactive)
HOP-92
  GI50: > 100 µM (inactive)
LOX IMVI
  GI50: > 100 µM (inactive)
BT-549
  GI50: > 100 µM (inactive)
HCT-15
  GI50: > 100 µM
CAKI-1
  GI50: > 100 µM (inactive)
NCI/ADR-RES
  GI50: > 100 µM (inactive)
HCT-116
  GI50: > 100 µM (inactive)
KM12
  GI50: > 100 µM (inactive)
UACC-257
  GI50: > 100 µM (inactive)
K562
  GI50: > 100 µM (inactive)
ACHN
  GI50: > 100 µM (inactive)
UACC-62
  GI50: > 100 µM (inactive)
SW-620
  GI50: > 100 µM (inactive)
NCI-H226
  GI50: > 100 µM (inactive)
DU-145
  GI50: > 100 µM (inactive)
CCRF-CEM
  GI50: > 100 µM (inactive)
M14
  GI50: > 100 µM (inactive)
T47D
  GI50: > 100 µM (inactive)
SF-295
  GI50: > 100 µM (inactive)
OVCAR-3
  GI50: > 100 µM (inactive)
SNB-75
  GI50: > 100 µM (inactive)
SK-MEL-2
  GI50: > 100 µM (inactive)
MCF7
  GI50: > 100 µM (inactive)
786-0
  GI50: > 100 µM (inactive)
SF-539
  GI50: > 100 µM (inactive)
COLO 205
  GI50: > 100 µM (inactive)
NCI-H522
  GI50: > 100 µM (inactive)
OVCAR-4
  GI50: > 100 µM (inactive)
SN12C
  GI50: > 100 µM (inactive)
SF-268
  GI50: > 100 µM (inactive)
SK-MEL-5
  GI50: > 100 µM (inactive)
IGROV-1
  GI50: > 100 µM (inactive)
SK-OV-3
  GI50: > 100 µM (inactive)
MOLT-4
  GI50: > 100 µM (inactive)
SK-MEL-28
  GI50: > 100 µM (inactive)
A498
  GI50: > 100 µM (inactive)
A549
  GI50: > 100 µM (inactive)
HL-60
  GI50: > 100 µM (inactive)
RPMI-8226
  GI50: > 100 µM (inactive)
HCC 2998
  GI50: > 100 µM (inactive)
U-251
  GI50: > 100 µM (inactive)
EKVX
  GI50: > 100 µM (inactive)
NCI-H23
  GI50: > 100 µM (inactive)
PC-3
  GI50: > 100 µM (inactive)
MDA-MB-435
  GI50: > 100 µM (inactive)
RXF 393
  GI50: > 100 µM (inactive)
Malme-3M
  GI50: > 100 µM (inactive)
UO-31
  GI50: > 100 µM (inactive)
HT-29
  GI50: > 100 µM (inactive)
